Molecular target: BTK (Homo sapiens, UniProt Q06187)
Assay: biochemical
Conditions: read-out: BTK inhibition (%), 0.75 uM BTK, […] probe 3l, 15 min preincubation

BTK, sequence (Q06187 402-655 limits assumed): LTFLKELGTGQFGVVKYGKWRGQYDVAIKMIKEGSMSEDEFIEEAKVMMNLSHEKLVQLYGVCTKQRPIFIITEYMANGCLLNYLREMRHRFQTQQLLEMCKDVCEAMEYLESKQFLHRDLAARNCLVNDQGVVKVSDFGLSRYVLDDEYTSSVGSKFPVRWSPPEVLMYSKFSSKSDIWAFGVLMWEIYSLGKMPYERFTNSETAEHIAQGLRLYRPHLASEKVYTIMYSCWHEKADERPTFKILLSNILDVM

Compound | inhibition at 10 µM [%]
Cc1c(-c2ccnn2C)cc(C(=O)NCc2ccc(S(C)(=O)=O)cn2)c(=O)n1-c1cccc(C(F)(F)F)c1 [PCM-0215318] | -3.1
C=C(C)[C@@H]1CC[C@]2(C=O)CC[C@]3(C)[C@H](CC[C@@H]4[C@@]5(C)CC[C@H](O)C(C)(C)[C@@H]5CC[C@]43C)[C@@H]12 [PCM-0216430] | 19.3
COc1ccc(-c2cc(=O)c3c(O)cc(O)cc3o2)cc1 [PCM-0216090] | 16.6
CCOC(=O)OC(C)OC1=C(C(=O)Nc2ccccn2)N(C)S(=O)(=O)c2ccccc21 (centres unmarked) [PCM-0090753] | 2.1
COCCOc1ccc2c(c1)ncn2-c1ccc2cccc(N3CCC(N)CC3)c2n1 [PCM-0095094] | -18.6
CN1CCN(c2cccc(Nc3nc4c(-c5ccc(S(C)(=O)=O)cc5)cccn4n3)c2)CC1 [PCM-0095404] | 41.4
CCn1c(=O)c(-c2ccn[nH]2)cc2c(C)nc(N)nc21 [PCM-0215577] | 7.6
CCCCCCCCCCC[C@@H](C[C@@H]1OC(=O)[C@H]1CCCCCC)OC(=O)[C@H](CC(C)C)NC=O [PCM-0095181] | -13.2
NCCCC[C@H](NC(=O)[C@@H]1CCCN1C(=O)[C@@H]1CSSC[C@H](N)C(=O)N[C@@H](Cc2ccc(O)cc2)C(=O)N[C@@H](Cc2ccccc2)C(=O)N[C@@H](CCC(N)=O)C(=O)N[C@@H](CC(N)=O)C(=O)N1)C(=O)NCC(N)=O [PCM-0216267] | -19.6
COc1ccc2[nH]cc(CCNC(C)=O)c2c1 [PCM-0065583] | 11.7
C=C1CCC[C@]2(C)C=C3OC(=O)C(C)=C3C[C@@H]12 [PCM-0215796] | -4.1
C[C@@H]1CC[C@@]2(NC1)O[C@H]1C[C@H]3[C@@H]4CC=C5C[C@@H](O[C@@H]6O[C@H](CO)[C@@H](O[C@@H]7O[C@@H](C)[C@H](O)[C@@H](O)[C@H]7O)[C@H](O)[C@H]6O[C@@H]6O[C@@H](C)[C@H](O)[C@@H](O)[C@H]6O)CC[C@]5(C)[C@H]4CC[C@]3(C)[C@H]1[C@@H]2C [PCM-0216423] | 17.8
COc1ccc(-c2oc3c(CC=C(C)C)c(O)cc(O)c3c(=O)c2O[C@@H]2O[C@@H](C)[C@H](O)[C@@H](O)[C@H]2O)cc1 [PCM-0214963] | 6.2
CC(C)(O)[C@@H]1CC[C@](C)([C@H]2[C@@H](O)C[C@@]3(C)[C@@H]4C[C@H](O[C@@H]5O[C@H](CO)[C@@H](O)[C@H](O)[C@H]5O)[C@H]5C(C)(C)[C@@H](O[C@@H]6OC[C@@H](O)[C@H](O)[C@H]6O)CC[C@@]56C[C@@]46CC[C@]23C)O1 [PCM-0215009] | 12.5
CC(C)NC[C@@H](C(=O)N1CCN(c2ncnc3c2[C@H](C)C[C@H]3O)CC1)c1ccc(Cl)cc1 [PCM-0095420] | -4.1
C[C@@H]1CCCC2=CC(=O)[C@@H]3[C@@H](C3(C)C)[C@]21C [PCM-0216523] | -8.5
Cc1ccc(S(=O)(=O)NC(=O)NN2CC3CCCC3C2)cc1 (centres unmarked) [PCM-0086156] | -2.3
COc1cccc2c1C(=O)c1c(O)c3c(c(O)c1C2=O)C[C@@](O)(C(=O)CO)C[C@@H]3O[C@H]1C[C@H](N)[C@@H](O)[C@H](C)O1 [PCM-0090504] | 45.1

Further lines, results first:

inhibition at 10 µM [%] | Compound
-27.2 | CCCCC(=O)N(Cc1ccc(-c2ccccc2-c2nn[nH]n2)cc1)[C@H](C(=O)O)C(C)C [PCM-0090417]
-17.9 | CNNCc1ccc(C(=O)NC(C)C)cc1 [PCM-0086325]
-25.7 | CCn1c(=O)c2c(nc(/C=C/c3ccc(OC)c(OC)c3)n2C)n(CC)c1=O [PCM-0095373]
-10.1 | COc1cc(C=O)ccc1OC(C)=O [PCM-0215077]
-3.4 | CCC1(c2ccc(N)cc2)CCC(=O)NC1=O (centres unmarked) [PCM-0064565]
15.6 | CC[C@@H](C(N)=O)N1CCCC1=O [PCM-0064838]
5.4 | COCCOC(=O)C1=C(C)NC(C)=C(C(=O)OC(C)C)C1c1cccc([N+](=O)[O-])c1 (centres unmarked) [PCM-0064753]
7.6 | CNc1nc(Nc2cn(C(C)(C)C#N)nc2C)ncc1C(F)(F)F [PCM-0095754]

— publication PMC8041284, “Tunable Methacrylamides for Covalent Ligand Directed Release Chemistry” (Journal of the American Chemical Society, 2021)
